Source: patent US20260176290A1, “INHIBITORS OF KRAS(G12D)” (Ranok Therapeutics (Hangzhou) Co. Ltd., priority 2022, published 2026)

Legend:
in vivo = conditions: male, CD-1, mouse, po
Protocol: (§3) CD-1 mice were randomly assigned to 6 groups with 3 male mice in each compound group. […] Compounds were orally administered (PO) in a single dose to each mouse in its group. Blood samples were taken within 72 hours. Bioavailability (F %) was determined and by liquid chromatography-mass spectrometry (LC-MS/MS).

[1] = test system: A-427 lung carcinoma cells [heterozygous G12D]; experiment: Cancer cell line proliferation (CellTiter-Glo), A-427; assay type: cell-based; conditions: Homo sapiens, A427 cells, 72 hr, read-out: CTG(IC50), ABS-72 H(nM) A427
Protocol: (§1) The following cancer cell lines were employed: AGS gastric carcinoma [heterozygous G12D] (ATCC, CRL-1739); A-427 lung carcinoma [heterozygous G12D] (ATCC, HTB-53); ASPC1 pancreatic adenocarcinoma [homozygous G12D] (ATCC, CRL-1682) and SW1990 pancreatic adenocarcinoma [homozygous G12D] (ATCC CRL-2172). Cell lines were cultured essentially according to ATCC recommendations.
(§2) AGS, A-427, ASPC1, SW1990, and GP2D cells were plated in 96-well tissue culture plates at 4,000 cells/well and incubated at 37° C./5% CO2 for 72 hr in 100 μl of media. 3-fold serial dilutions of each test compound were prepared ranging from 20 μM to 1.02 nM. Each cell line was then treated with test compounds at various concentrations with a final concentration of 0.5% DMSO/well, and then incubated at 37° C./5% CO2 for 72 hr. 100 μl of CellTiter-Glo® Reagent (Promega Corporation, Madison, WI) was added to each well and processed according manufacturer's protocol. Results were analyzed and IC50 5 values were calculated in GraphPad 7 software.

[2] = test system: AGS gastric carcinoma cells [heterozygous G12D]; experiment: Cancer cell line proliferation (CellTiter-Glo), AGS; assay type: cell-based; conditions: Homo sapiens, 72 hr, read-out: CTG(IC50), ABS-72 H(nM) AGS
Protocol: as §1, §2

[3] = test system: ASPC1 pancreatic adenocarcinoma cells [homozygous G12D]; experiment: Cancer cell line proliferation (CellTiter-Glo), ASPC1; assay type: cell-based; conditions: Homo sapiens, ASPC-1 cells, 72 hr, read-out: CTG(IC50), ABS-72 H(nM) ASPC-1
Protocol: as §1, §2

[4] = test system: SW1990 pancreatic adenocarcinoma cells [homozygous G12D]; experiment: Cancer cell line proliferation (CellTiter-Glo), SW1990; assay type: cell-based; conditions: Homo sapiens, 72 hr, read-out: CTG(IC50), ABS-72 H(nM) SW1990
Protocol: as §1, §2

[5] = Oral bioavailability in CD-1 mice; conditions: male, CD-1, mouse, blood
Protocol: as §3

KRAS (G12D)/SOS1 = target: T1, KRAS (G12D)/SOS1 (Homo sapiens, UniProt P01116, G12D); experiment: KRAS (G12D)/SOS1 homogeneous time-resolved fluorescence (HTRF) assay; assay type: binding; conditions: absence of GTP, 4° C. for 3 hr
T1 construct: purchased Cisbio 63ADK000CB17PEH
Protocol: 3-fold serial dilutions of each test compound were prepared ranging from 20 μM to 1.02 nM. The test compound was mixed and incubated with reaction components, incubated in a sealed plate at 4° C. for 3 hr and fluorescence was measured using a PerkinElmer Envision plate reader. […]

T1 sequence (P01116 1-188 isoform P01116-2 G12D): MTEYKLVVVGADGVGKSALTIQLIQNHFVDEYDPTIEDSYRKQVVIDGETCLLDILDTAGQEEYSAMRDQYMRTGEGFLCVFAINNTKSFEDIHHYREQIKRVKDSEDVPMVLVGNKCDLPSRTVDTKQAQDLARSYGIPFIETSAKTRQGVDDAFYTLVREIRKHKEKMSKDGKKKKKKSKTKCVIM

| SMILES | bioavailability (in vivo) [%] | IC50 [1] [nM] | IC50 [2] [nM] | IC50 [3] [nM] | IC50 [4] [nM] | bioavailability [5] [%] | IC50 (KRAS (G12D)/SOS1) [nM] | bioavailability ([5]; 25 mg/kg) [%] |
| --- | --- | --- | --- | --- | --- | --- | --- | --- |
| C#Cc1cccc2cc(O)cc(-c3ncc4c(N5CC6CCC(C5)N6)nc(OCC5(CN6CC7C(C6)C7(F)F)CC5)nc4c3F)c12 (centres unmarked) [Example 100] | 1.7 | – | – | – | – | – | – | – |
| C#Cc1c(F)ccc2cc(O)cc(-c3ncc4c(N5CC6CCC(C5)N6)nc(OCC5(CN6CC7C(C6)C7C(F)(F)F)CC5)nc4c3F)c12 (centres unmarked) [Example 37] | – | 100 to 1000 | < 100 | < 100 | < 100 | 10.6 | < 100 | – |
| C#Cc1c(F)ccc2cc(O)cc(-c3ncc4c(N5CC6CCC(C5)N6)nc(OCC5(CN6CC7C(F)C7C6)CC5)nc4c3F)c12 (centres unmarked) [Example 149] | 12.9 | – | – | – | – | – | – | – |
| C#Cc1c(F)ccc2cc(O)cc(-c3nc(OC)c4c(N5CC6CCC(C5)N6)nc(OCC5(CN6CCC6)CC5)nc4c3F)c12 [Ref. 2, reference compound] | – | – | < 100 | 100 to 1000 | 100 to 1000 | – | < 100 | 0.15 |
| C#Cc1c(F)ccc2cc(O)cc(-c3nc(OC)c4c(N5CC6CCC(C5)N6)nc(OCC5(CN6CCC(F)CC6)CC5)nc4c3F)c12 [Example 19] | – | < 100 | < 100 | < 100 | < 100 | 9.39 | < 100 | – |
| COc1nc(-c2cc(N)cc(Cl)c2C(F)(F)F)c(F)c2nc(OCC3(CN4CC5CC5C4)CC3)nc(N3CC4CCC(C3)N4)c12 (centres unmarked) [Example 165] | 13.8 | – | – | – | – | – | – | – |
| C#Cc1c(F)ccc2cc(O)cc(-c3nc(OC)c4c(N5CC6CCC(C5)N6)nc(OCC5(CN6CCC7CC76)CC5)nc4c3F)c12 (centres unmarked) [Example 43] | – | 100 to 1000 | < 100 | < 100 | < 100 | 2.37 | < 100 | – |
| C#Cc1c(F)ccc2cc(O)cc(-c3nc(OC(C)C)c4c(N5CC6CCC(C5)N6)nc(OCC5(CN6CCC(C(F)(F)F)CC6)CC5)nc4c3F)c12 [Example 29] | – | 100 to 1000 | < 100 | < 100 | < 100 | – | < 100 | – |
| C#Cc1c(F)ccc2cc(O)cc(-c3nc(OC)c4c(N5CC6CCC(C5)N6C(=O)OCOC(=O)C(C)C)nc(OCC5(CN6CC7CC7C6)CC5)nc4c3F)c12 (centres unmarked) [Example 148] | 6.8 | – | – | – | – | – | – | – |
| C#Cc1c(F)ccc2cc(O)cc(-c3nc(OC4CC4)c4c(N5CC6CCC(C5)N6)nc(OCC5(CN6CCC(C(F)(F)F)CC6)CC5)nc4c3F)c12 [Example 31] | – | 100 to 1000 | < 100 | < 100 | < 100 | – | < 100 | – |
| C#Cc1c(F)ccc2cc(O)cc(-c3ncc4c(N5CC6CCC(C5)N6)nc(OCC5(CN6CCC7(CC6)OCCO7)CC5)nc4c3F)c12 [Example 24] | – | 100 to 1000 | < 100 | > 1000 | < 100 | – | < 100 | – |
| C#Cc1cccc2cc(O)cc(-c3ncc4c(N5CC6CCC(C5)N6)nc(OCC5(CN6CC[C@H](F)C6)CC5)nc4c3F)c12 [Example 8] | – | < 100 | < 100 | < 100 | < 100 | – | < 100 | – |
| C#Cc1c(F)ccc2cc(O)cc(-c3nc(OC)c4c(N5CC6CCC(C5)N6)nc(OCC5(CN6CCCC6)CC5)nc4c3F)c12 [Ref. 3, reference compound] | – | – | < 100 | – | – | 0.23 | – | – |
| C#Cc1c(F)ccc2cc(O)cc(-c3nc(N(C)C)c4c(N5CC6CCC(C5)N6)nc(OCC5(CN6CCC(F)CC6)CC5)nc4c3F)c12 [Example 23] | – | > 1000 | > 1000 | > 1000 | > 1000 | – | 100 to 1000 | – |
| C#Cc1c(F)ccc2cc(O)cc(-c3nc(OC)c4c(N5CC6CCC(C5)N6)nc(OCC5(CN6CCC(C#N)C6)CC5)nc4c3F)c12 (centres unmarked) [Example 38] | – | – | < 100 | < 100 | < 100 | 1.8 | < 100 | – |
